Data published in article PMC7579403, “POTN: A Human Leukocyte Antigen-A2 Immunogenic Peptides Screening Model and Its Applications in Tumor Antigens Prediction” (Frontiers in Immunology, 2020).

Assays:
HLA-A2 molecule = target: T1, HLA-A2 molecule (Homo sapiens, UniProt P04439, D140Y/D185E/D98H/E176V/E277Q/G131W/G231S/I119V/I121R/I166T/I218V/L300P/L318F/N151K/N90K/P208A/P217A/Q86G/Q94H/R138H/R169H/T345S); assay: T2 binding assay (fluorescence index, FI); settings: T2 cells, peptide 50 μg/mL, human β2-microglobulin 3 µg/mL, 37°C 18 h, anti-HLA-A2 BB7.2 PE-cy7, flow cytometry; class by FI
T1 construct: The T2 cell line (HLA-A2) was supplied by Professor Yuzhang Wu; endogenous in cells; host or cells: T2 cell line (HLA-A2); exogenous human β2-microglobulin from Merck
Protocol: The T2 binding assay was used to determine the binding affinity of the candidate peptides and HLA-A2 molecule by using a previously described protocol ([27]). The T2 cell line (HLA-A2) was supplied by Professor Yuzhang Wu (Third Military Medical University, Chongqing, China). […] The T2 cells were washed twice and incubated with the anti-human HLA-A2-PE-cy7 antibody (BB7.2, eBioscience, USA) at 4°C for 30 min. The mean fluorescence intensity (FI) of each group was analyzed by flow cytometry (FACSCalibur, Becton-Dickinson, USA). Based on the FI, the binding affinity of the candidate peptides toward HLA-A2 molecule was calculated by FI =a−b/b where a is the mean PE-cy7 FI with the peptide and b is the mean PE-cy7 FI without the peptide.

T cell response = system: T cell response; design: method as in PMID 29720506, PMID 15564450, PMID 18753217, PMID 21883919, PMID 11984506; settings: pairs with only one amino acid different at P3; ref [62]–[66]; cited from earlier work
[1] = system: CD3+CD8+ T cells from HLA-A2+ healthy donors; assay: ICS assay for immunogenicity: IFN-γ production of CD3+CD8+ T cells from peptide-stimulated PBMCs; type: cell-based, human; settings: for Immunogenicity: response ratio of each peptide in five donors: percentages of IFN-γ+-secreting CD8+ T cells higher than negative control, PBMCs stimulated 10 μg/mL once-weekly 3 weeks
Protocol: We determined whether the high-binding affinity peptides elicited a T cell response in peripheral blood samples from five HLA-A2^+ healthy donors. The blood samples were obtained from Henan Red Cross Blood Center (Zhengzhou, China) with the approval of the Institutional Ethics Review Board. All research was performed under the approval of the Ethics Committee of Zhengzhou University. An ICS assay was used to quantify IFN-γ production of CD3^+CD8^+ T cells. Peripheral blood mononuclear cells (PBMCs) were stimulated by each peptide (10 μg/mL) once-weekly for 3 weeks according to our previous work ([59]). On day 21, the induced T cells from the PBMCs were used as effector cells, and T2 cells were incubated with the synthesized peptides (50 μg/mL) for 4 h as the stimulator cells. The effector cells (1 × 10^6) and stimulator cells (1 × 10^6) were co-incubated for 3 h, and brefeldin A (2 μg/mL, Sigma-Aldrich, USA) was added to block the release of produced cytokines for another 5 h at 37°C and 5% CO2. The cells were washed and stained with eFlour 710 labeled anti-human CD3 antibody and APC-labeled anti-human CD8 antibody (eBioscience) for 30 min at 4°C before fixation and permeabilization. Permeabilized cells were intracellularly stained with the PE-labeled anti-human IFN-γ antibody (BioLegend, Inc., USA) for 30 min on ice in the dark. Cells were resuspended in buffer for acquisition and analysis using a flow cytometer (FACSCalibur, Becton Dickinson).
Next, we examined the T cell responses of the 13 synthesized peptides with high binding affinity by detecting the percentages of IFN-γ^+ CD8^+ T cells from five HLA-A2^+ healthy donors. A higher percentage of IFN-γ^+ CD8^+ T cells in the total CD8^+ T cell population than that of the negative control indicated an immunogenic peptide. In donor 1, 12 were immunogenic ( Figure 5B ); in donor 2, eight peptides were immunogenic ( Figure 5C ); in donor 3, 10 peptides were immunogenic ( Figure 5D ); in donor 4, six peptides were immunogenic ( Figure 5E ); and in donor 5, 12 peptides were immunogenic ( Figure 5F ). […] In other words, any of the 13 high-affinity peptides could stimulate a T lymphocyte response in at least one donor ( Figures 5G, H ).

Sequence	Binding (HLA-A2 molecule)	Immunogenicity (immunogenic / non-immunogenic) (T cell response)	Immunogenicity: response ratio of each peptide in five donors [1]	T cell response in donors ([1]; IFN-γ+ CD8+ T cells, five HLA-A2+ healthy donors)
KVAKLVHFL [CT-X candidate nonamer predicted by POTN, synthesized]	+ (FI ≥ 0.5 to < 1.5)			
EVREKHEFL [literature peptide of a P3 pair]		non-immunogenic		
ALSTVLPGL [CT-X candidate nonamer predicted by POTN, synthesized]	++ (FI ≥ 1.5)		2/5	
TLDEKVAEL [CT-X candidate nonamer predicted by POTN, synthesized]	++ (FI ≥ 1.5)		5/5	
KMAGELIKI [CT-X candidate nonamer predicted by POTN, synthesized]	++ (FI ≥ 1.5)		4/5	
QLCDVMFYL [literature peptide of a P3 pair]		immunogenic		
FLAMLKNTV [CT-X candidate nonamer predicted by POTN, synthesized]	+ (FI ≥ 0.5 to < 1.5)			
ILDRANQSV [CT-X candidate nonamer predicted by POTN, synthesized]	++ (FI ≥ 1.5)		3/5	
ALSVMGVYV [CT-X candidate nonamer predicted by POTN, synthesized]	+ (FI ≥ 0.5 to < 1.5)			
KVADLIHFL [CT-X candidate nonamer predicted by POTN, synthesized]	+ (FI ≥ 0.5 to < 1.5)			
VLSTAPPQL [CT-X candidate nonamer predicted by POTN, synthesized]	++ (FI ≥ 1.5)		4/5	
KVAELVHFL [CT-X candidate nonamer predicted by POTN, synthesized]	+ (FI ≥ 0.5 to < 1.5)			
LMDVQIPTA [CT-X candidate nonamer predicted by POTN, synthesized]	++ (FI ≥ 1.5)		5/5	
AMASASPSV [CT-X candidate nonamer predicted by POTN, synthesized]	++ (FI ≥ 1.5)		3/5	
VLSAVTPEL [CT-X candidate nonamer predicted by POTN, synthesized]	+ (FI ≥ 0.5 to < 1.5)			
VLSNVLSGL [CT-X candidate nonamer predicted by POTN, synthesized]	+ (FI ≥ 0.5 to < 1.5)			
FLSKLSSII [CT-X candidate nonamer predicted by POTN, synthesized]	- (FI < 0.5)			
FLAKLNNTV [CT-X candidate nonamer predicted by POTN, synthesized; also in training set]	+ (FI ≥ 0.5 to < 1.5)			
KLSSIIPSA [CT-X candidate nonamer predicted by POTN, synthesized]	++ (FI ≥ 1.5)		1/5	only elicited a response in donor 5
SIDDLSFYV [CT-X candidate nonamer predicted by POTN, synthesized]	++ (FI ≥ 1.5)		4/5	
EVKEKHEFL [literature peptide of a P3 pair]		immunogenic		
YLATADMPA [CT-X candidate nonamer predicted by POTN, synthesized]	++ (FI ≥ 1.5)		3/5	
FIDKLVESV [CT-X candidate nonamer predicted by POTN, synthesized]	++ (FI ≥ 1.5)		5/5	
QLRDVMFYL [literature peptide of a P3 pair]		non-immunogenic		
ALDEKVAEL [CT-X candidate nonamer predicted by POTN, synthesized]	++ (FI ≥ 1.5)		4/5	
TLDQVLDEV [CT-X candidate nonamer predicted by POTN, synthesized]	++ (FI ≥ 1.5)		5/5	
